Results published in patent publication US20150231242A1, “COMBINATION OF CD37 ANTIBODIES WITH BENDAMUSTINE” (Boehringer Ingelheim International GmbH, priority 2012, published 2015).

Assays:
[1] = system: Raji Burkitt lymphoma cells; experiment: Apoptosis assay (Annexin V/PI staining, FACS) on Raji cells; type: cell-based, human; details: 48 h, A2 10 μg/ml, Annexin V positive cells, mean of three experiments
[2] = system: Ramos Burkitt lymphoma cells; experiment: Apoptosis assay (Annexin V/PI staining, FACS) on Ramos cells; type: cell-based, human; details: 48 h, A2 10 μg/ml, Annexin V positive cells, mean of three experiments
[3] = system: DOHH2 tumors (human follicular lymphoma); experiment: Efficacy in subcutaneous DOHH2 human follicular lymphoma xenograft (Example 3); type: in vivo, C.B-17 scid mice; details: day 16; for anti-tumor effect in words: DOHH2 tumors
DoHH2 tumor cells = experiment: DoHH2 human xenograft tumor model (Example 2); type: in vivo, CB-17 SCID mice; details: A2 10 mg/kg twice weekly, bendamustine 10 mg/kg twice weekly ip; present-tense example
[4] = Body weight / tolerability in DOHH2 tumor-bearing mice (Example 3); details: for tolerability in words: body weight as indicator of tolerability

Structure (SMILES): Cn1c(CCCC(=O)O)nc2cc(N(CCCl)CCCl)ccc21 [Bendamustine, 4-[5-[Bis(2-chloroethyl)amino]-1-methylbenzimidazol-2-yl]butanoic acid]
- % apoptotic cells ([1]; bendamustine 200 μM column): 10%
- % apoptotic cells ([1]; bendamustine 400 μM column): 13%
- % apoptotic cells ([2]; bendamustine 100 μM column): 19%
- % apoptotic cells ([2]; bendamustine 400 μM column): 35%
- anti-tumor effect in words [3]: significant inhibition of tumor growth
- anti-tumor effect in words ([3]; listed as bendamustine): growth inhibited
- CR (complete tumor regression) ([3]; 7 mice per group): 0 x/7
- PR (partial tumor regression) ([3]; 7 mice per group): 0 x/7
- TGI ([3]; median, antibody A2 10 mg/kg i.p. twice weekly, bendamustine 20 mg/kg i.p. two injections): 57%
- anti-tumor effect in words (DoHH2 tumor cells): significant anti-tumor effect
- tolerability in words [4]: resulted in weight loss
- tolerability in words ([4]; listed as bendamustine): moderately tolerated
- body weight loss in median ([4]; within the first week of treatment): up to 7.9%
